Measurements reported in US20230382915A1, “GCN2 AND PERK KINASE INHIBITORS AND METHODS OF USE THEREOF” (Deciphera Pharmaceuticals, LLC, priority 2021, published 2023).

Key:
[1] = test system: GA-10 Burkitt lymphoma cells; test: Cell proliferation, combination with standard of care, GA-10; type: cell-based; conditions: Homo sapiens, with 50 nM dexamethasone, 96 h, FIG. 6C, read-out: inhibition of cell proliferation IC50, combination treatment
Procedure: H929, RPMI8226, GA-10 and DoHH-2 cells (catalog #CRL-9068) were obtained from the American Type Culture Collection (ATTC, Manassas, VA). H929 Cells were maintained in RPMI-1640 medium supplemented with 20% heat-inactivated fetal bovine serum (catalog #A3840002, ThermoFisher Scientific, Waltham, MA), 1% Penicillin/Streptomycin/L-Glutamine (catalog #10378016, ThermoFisher Scientific, Waltham, MA), and 0.05 mM 2-mercaptoethanol (catalog #21985-023, ThermoFisher Scientific, Waltham, MA). […]
For cell proliferation assay appropriate number of cells (Forty thousand cells for H929. Twenty thousand cells for RPMI8226 and GA-10. Eight thousand cells for DoHH-2) were seeded per well in 200 μL in respective medium were dispensed into a 96-well black clear bottom plate. […] Plates were read on a Synergy2 or equivalent reader (Biotek, Winooski VT) using an excitation of 540 nm and an emission of 600 nm. At the end of the incubation of DoHH-2, cell viability was determined using CellTiter-Glo® assay (Promega, Madison, WI). Luminescence was measured using EnVision MultiLabel Reader (PerkinElmer, Waltham, MA). Data was analyzed using GraphPad Prism software (GraphPad, San Diego, CA) to calculate IC50 values.

HT-1080 spheroids = test: Spheroid Western blot assay, HT-1080; type: cell-based
Procedure: NSCLC cell lines H358 (catalog #CRL-5807) and H2030 (catalog #CRL-5914), and fibrosarcoma cell line HT-1080 (catalog […]) were obtained from the American Type Culture Collect (ATTC, Manassas, VA). Cells were grown in RPMI-1640 medium supplemented with 10% heat-inactivated fetal bovine serum and 1% Penicillin/Streptomycin/L-Glutamine (Invitrogen, Carlsbad, CA) at 37° C., 5% CO2, and 95% humidity and maintained at 50-80% confluency until use. Cells were plated at 500,000 cells/well in 24-well Elplasia plates (Corning, Glendale, AZ) with complete growth media at 1 mL/well and incubated overnight at 37° C., 5% CO2, and 95% humidity to form spheroids. The next day, serial dilutions of test compounds were prepared in complete growth media and 500 μL existing media was removed from each well and replaced with fresh media containing compound titers. Spheroids were then incubated with test compounds for 4 hours or 24 hours under the same conditions. […] Western blots were performed to quantify phospho-GCN2 (R&D Systems, Minneapolis, MN), ATF4, CHOP, cleaved PARP, cleaved Caspase 3 and 7, and beta-Actin (Cell Signaling Technology, Danvers, MA). […]

[2] = test system: ATF4 levels in HT-1080 fibrosarcoma xenograft; test: HT-1080 fibrosarcoma xenograft PK/PD model; type: in vivo, mice
Procedure: The HT-1080 xenograft model was performed in compliance with all the laws, regulations and guidelines of the National Institutes of Health (NIH) and with the approval of the Animal Care and Use Committee of Labcorp (Ann Arbor, MI), an AAALAC accredited facility. Food and water were provided ad libitum. […] Female nude mice (6-7 weeks old) were inoculated subcutaneously just below the right high axilla with two million cells in Dulbecco's Phosphate Buffered Saline, using a 27-gauge needle and syringe. When tumor burdens reached 150 mm 3 on average on day 6, mice were randomly assigned into groups such that the mean tumor burden for all groups was within 10% of the overall mean tumor burden for the study population. Groups were treated on days 6-11 as follows: vehicle control (dosed orally) (n=9); Compound 2 dosed orally at 10 mg/kg BID (n=9); Compound 2 dosed orally at 5 mg/kg BID; Compound 2 dosed orally at 1 mg/kg BID (n=9) prior to sample harvest at 2, 6 and 10 h post dose on day 11. Blood samples were collected in K2EDTA tubes and processed into plasma, snap frozen in liquid nitrogen then stored at −80° C. Plasma samples were subjected to pharmacokinetic analysis using liquid chromatography coupled with tandem mass spectrometry analysis (Cayman Chemical, Ann Arbor, MI). Tumors were harvested and powdered over liquid nitrogen in covaris bags and stored at −80° C. For tissue sample processing roughly 30 mg of tumor tissue was lysed in MPER lysis buffer (Thermo Fisher Scientific, Waltham, MA) supplemented with 3× Halt protease inhibitor, 3×Halt phosphatase inhibitor, 3× Sigma phosphatase inhibitor cocktail 2 and 3×EDTA on ice then homogenized using Bead Ruptor 96 (Omni, Kennesaw, GA). […] Protein concentrations were determined using BCA protein assay kit (Thermo Fisher Scientific, Waltham, MA). […] Samples were resolved using SDS-PAGE then analyzed using Western blot to quantify ATF4 and beta-Actin (Cell Signaling Technology, Danvers, MA). […] Data was analyzed using GraphPad Prism software (GraphPad, San Diego, CA) to calculate % inhibition.

Structure (SMILES): Cn1cc(-c2cccc(NS(=O)(=O)c3cc(Cl)cc(CO)c3Cl)c2F)c2c(N)ncnc21 [Example 2, N-(3-(4-amino-7-methyl-7H-pyrrolo[2,3-d]pyrimidin-5-yl)-2-fluorophenyl)-2,5-dichloro-3-(hydroxymethyl)benzenesulfonamide]
- IC50 [1]: 4 nM
- upregulation of ATF4 (Western blot quantification) (HT-1080 spheroids): ≤ 15 fold
- upregulation of ATF4 levels compared to vehicle control ([2]; 1 mg/kg BID orally): 3 fold
- upregulation of ATF4 levels compared to vehicle control ([2]; 5 mg/kg BID orally): 3.5 fold
- upregulation of ATF4 levels compared to vehicle control ([2]; 10 mg/kg BID orally): 4.5 fold
